Laboratory results: the NIST ThermoML archive (doi:10.1021/acs.jced.7b01006)
± gives the expanded uncertainty stated by the source.

Experiment: xn = mol fraction of the nth substance listed
Settings: 100 kPa, Liquid; for electrical conductivity: Alternating current cell with electrodes; for viscosity: Falling or rolling sphere viscometry; for mass density: Vibrating tube method

CCC[n+]1ccn(C)c1C.N#C[S-] [1,2-dimethyl-3-propylimidazolium thiocyanate] + CC#N
Settings | electrical conductivity [S/m] | mass density [kg/m3] | viscosity [mPa·s]
288.15 K, x1 = 0.1002 | 5.17 ± 0.52 | 884.48 ± 2 | 7.694 ± 0.11
288.15 K, x1 = 0.2002 | 4.31 ± 0.43 | 948.75 ± 2 | 16.21 ± 0.23
288.15 K, x1 = 0.2998 | 3.45 ± 0.35 | 996.05 ± 2.1 | 29.71 ± 0.44
288.15 K, x1 = 0.4001 | 2.35 ± 0.24 | 1028.84 ± 2.1 | 51.08 ± 0.69
288.15 K, x1 = 0.4997 | 1.21 ± 0.12 | 1052.44 ± 2.2 | 81.84 ± 1.7
288.15 K, x1 = 0.5998 | 0.95 ± 0.1 | 1067.26 ± 2.3 | 120.8 ± 3.8
288.15 K, x1 = 0.7002 | 0.685 ± 0.069 | 1077.84 ± 2.4 | 166.5 ± 7
288.15 K, x1 = 0.7999 | 0.496 ± 0.05 | 1085.72 ± 2.5 | 215 ± 11
288.15 K, x1 = 0.8999 | 0.378 ± 0.038 | 1093.78 ± 2.7 | 264.8 ± 15
288.15 K, x1 = 1 | 0.255 ± 0.026 | 1099.81 ± 2.9 | 316.5 ± 20
293.15 K, x1 = 0.1002 | 5.5 ± 0.55 | 880.24 ± 2 | 5.454 ± 0.076
293.15 K, x1 = 0.2002 | 4.67 ± 0.47 | 945.16 ± 2 | 11.9 ± 0.2
293.15 K, x1 = 0.2998 | 3.84 ± 0.38 | 992.52 ± 2.1 | 22.12 ± 0.33
293.15 K, x1 = 0.4001 | 2.64 ± 0.26 | 1025.75 ± 2.1 | 37.64 ± 0.58
293.15 K, x1 = 0.4997 | 1.46 ± 0.15 | 1049.28 ± 2.2 | 58.62 ± 0.88
293.15 K, x1 = 0.5998 | 1.16 ± 0.12 | 1064.44 ± 2.3 | 85.72 ± 1.9
293.15 K, x1 = 0.7002 | 0.883 ± 0.088 | 1075.11 ± 2.4 | 117.1 ± 3.6
293.15 K, x1 = 0.7999 | 0.639 ± 0.064 | 1083.11 ± 2.5 | 150.3 ± 5.9
293.15 K, x1 = 0.8999 | 0.478 ± 0.048 | 1090.97 ± 2.7 | 183.5 ± 8.4
293.15 K, x1 = 1 | 0.361 ± 0.036 | 1096.75 ± 2.9 | 215.8 ± 11
298.15 K, x1 = 0.1002 | 5.83 ± 0.58 | 876.09 ± 2 | 3.864 ± 0.054
298.15 K, x1 = 0.2002 | 5.05 ± 0.51 | 941.45 ± 2 | 8.717 ± 0.12
298.15 K, x1 = 0.2998 | 4.27 ± 0.43 | 988.89 ± 2.1 | 16.33 ± 0.24
298.15 K, x1 = 0.4001 | 2.98 ± 0.3 | 1022.71 ± 2.1 | 27.66 ± 0.42
298.15 K, x1 = 0.4997 | 1.72 ± 0.17 | 1046.39 ± 2.2 | 42.09 ± 0.67
298.15 K, x1 = 0.5998 | 1.4 ± 0.14 | 1061.68 ± 2.3 | 60.63 ± 0.97
298.15 K, x1 = 0.7002 | 1.08 ± 0.11 | 1072.2 ± 2.4 | 82.01 ± 1.8
298.15 K, x1 = 0.7999 | 0.789 ± 0.079 | 1080.57 ± 2.5 | 105 ± 3
298.15 K, x1 = 0.8999 | 0.589 ± 0.059 | 1088.08 ± 2.7 | 128.8 ± 4.5
298.15 K, x1 = 1 | 0.459 ± 0.046 | 1093.67 ± 2.9 | 151.9 ± 6.1
303.15 K, x1 = 0.1002 | 6.16 ± 0.62 | 871.55 ± 2 | 2.697 ± 0.038
303.15 K, x1 = 0.2002 | 5.43 ± 0.54 | 937.88 ± 2 | 6.468 ± 0.092
303.15 K, x1 = 0.2998 | 4.71 ± 0.47 | 985.24 ± 2.1 | 12.26 ± 0.18
303.15 K, x1 = 0.4001 | 3.36 ± 0.34 | 1019.65 ± 2.1 | 20.36 ± 0.31
303.15 K, x1 = 0.4997 | 2.01 ± 0.2 | 1043.41 ± 2.2 | 30.78 ± 0.49
303.15 K, x1 = 0.5998 | 1.67 ± 0.17 | 1058.77 ± 2.3 | 44.13 ± 0.73
303.15 K, x1 = 0.7002 | 1.32 ± 0.13 | 1069.41 ± 2.4 | 59.49 ± 0.99
303.15 K, x1 = 0.7999 | 0.973 ± 0.097 | 1077.79 ± 2.5 | 76.35 ± 1.6
303.15 K, x1 = 0.8999 | 0.72 ± 0.072 | 1085.29 ± 2.7 | 93.37 ± 2.4
303.15 K, x1 = 1 | 0.583 ± 0.058 | 1090.61 ± 2.9 | 110.1 ± 3.4
308.15 K, x1 = 0.1002 | 6.49 ± 0.65 | 867.37 ± 2 | 1.998 ± 0.028
308.15 K, x1 = 0.2002 | 5.83 ± 0.58 | 934.26 ± 2 | 4.904 ± 0.07
308.15 K, x1 = 0.2998 | 5.16 ± 0.52 | 981.65 ± 2.1 | 9.381 ± 0.14
308.15 K, x1 = 0.4001 | 3.77 ± 0.38 | 1016.47 ± 2.1 | 15.33 ± 0.23
308.15 K, x1 = 0.4997 | 2.35 ± 0.23 | 1040.37 ± 2.2 | 22.87 ± 0.36
308.15 K, x1 = 0.5998 | 1.98 ± 0.2 | 1055.91 ± 2.3 | 32.68 ± 0.54
308.15 K, x1 = 0.7002 | 1.59 ± 0.16 | 1066.65 ± 2.4 | 43.59 ± 0.75
308.15 K, x1 = 0.7999 | 1.18 ± 0.12 | 1075.33 ± 2.5 | 55.98 ± 0.94
308.15 K, x1 = 0.8999 | 0.874 ± 0.087 | 1082.59 ± 2.7 | 69.61 ± 1.4
308.15 K, x1 = 1 | 0.733 ± 0.073 | 1087.57 ± 2.9 | 83.42 ± 2
313.15 K, x1 = 0.1002 | 6.81 ± 0.68 | 862.96 ± 2 | 1.461 ± 0.02
313.15 K, x1 = 0.2002 | 6.22 ± 0.62 | 930.69 ± 2 | 3.715 ± 0.053
313.15 K, x1 = 0.2998 | 5.62 ± 0.56 | 978.11 ± 2.1 | 7.289 ± 0.11
313.15 K, x1 = 0.4001 | 4.18 ± 0.42 | 1013.36 ± 2.1 | 11.81 ± 0.18
313.15 K, x1 = 0.4997 | 2.71 ± 0.27 | 1037.38 ± 2.2 | 17.46 ± 0.28
313.15 K, x1 = 0.5998 | 2.31 ± 0.23 | 1053.06 ± 2.2 | 24.53 ± 0.41
313.15 K, x1 = 0.7002 | 1.88 ± 0.19 | 1063.86 ± 2.4 | 32.94 ± 0.57
313.15 K, x1 = 0.7999 | 1.42 ± 0.14 | 1072.65 ± 2.5 | 42.28 ± 0.76
313.15 K, x1 = 0.8999 | 1.06 ± 0.11 | 1079.86 ± 2.7 | 53.18 ± 0.92
313.15 K, x1 = 1 | 0.905 ± 0.091 | 1084.55 ± 2.9 | 64.78 ± 1.3
318.15 K, x1 = 0.1002 | 7.13 ± 0.71 | 858.59 ± 2 | 1.077 ± 0.015
318.15 K, x1 = 0.2002 | 6.61 ± 0.66 | 927.1 ± 2 | 2.907 ± 0.041
318.15 K, x1 = 0.2998 | 6.1 ± 0.61 | 974.43 ± 2.1 | 5.635 ± 0.083
318.15 K, x1 = 0.4001 | 4.61 ± 0.46 | 1010.2 ± 2.1 | 9.215 ± 0.14
318.15 K, x1 = 0.4997 | 3.11 ± 0.31 | 1034.36 ± 2.2 | 13.52 ± 0.21
318.15 K, x1 = 0.5998 | 2.67 ± 0.27 | 1050.24 ± 2.2 | 18.99 ± 0.31
318.15 K, x1 = 0.7002 | 2.22 ± 0.22 | 1060.96 ± 2.4 | 25.5 ± 0.4
318.15 K, x1 = 0.7999 | 1.69 ± 0.17 | 1069.97 ± 2.5 | 32.82 ± 0.59
318.15 K, x1 = 0.8999 | 1.26 ± 0.13 | 1077.03 ± 2.7 | 41.2 ± 0.77
318.15 K, x1 = 1 | 1.1 ± 0.11 | 1081.54 ± 2.9 | 50.96 ± 0.92
323.15 K, x1 = 0.1002 | 7.45 ± 0.75 | 854.24 ± 2 | 0.775 ± 0.011
323.15 K, x1 = 0.2002 | 7.01 ± 0.7 | 923.56 ± 2 | 2.285 ± 0.033
323.15 K, x1 = 0.2998 | 6.58 ± 0.66 | 970.89 ± 2.1 | 4.456 ± 0.066
323.15 K, x1 = 0.4001 | 5.05 ± 0.51 | 1006.99 ± 2.1 | 7.216 ± 0.11
323.15 K, x1 = 0.4997 | 3.52 ± 0.35 | 1031.23 ± 2.2 | 10.53 ± 0.17
323.15 K, x1 = 0.5998 | 3.08 ± 0.31 | 1047.39 ± 2.2 | 14.68 ± 0.24
323.15 K, x1 = 0.7002 | 2.6 ± 0.26 | 1060 ± 2.4 | 19.99 ± 0.34
323.15 K, x1 = 0.7999 | 2 ± 0.2 | 1070 ± 2.5 | 25.88 ± 0.46
323.15 K, x1 = 0.8999 | 1.5 ± 0.15 | 1074.33 ± 2.7 | 33.37 ± 0.62
323.15 K, x1 = 1 | 1.33 ± 0.13 | 1078.54 ± 2.8 | 41.55 ± 0.81
